This is an account of results in patent US11795423B2, “Micro-fabricated multi-well chips for long term automated imaging of C. elegans growth and behavior” (THE TRUSTEES OF THE UNIVERSITY OF PENNSYLVANIA, priority 2014, dated 2023).

SMILES strings stand for the structures.

In this test the test system is C. elegans.

Procedure: NGM buffer is NGM agar without agar, peptone, or cholesterol.
A moat solution of 100 mM CuSO4 was prepared, which was approximately in osmotic equilibrium with the agar medium. The moat solution was added to the moats by pipette.

In turn, `O=S(=O)([O-])[O-].[Cu+2]` [copper sulfate] yielded a worms escaped (after 3 days, moat containing 100 mM copper sulfate, NGM liquid moat as comparison (about 20%)) of 5%. In addition, for the setting “moat containing 100 mM CuSO4, n=96, versus moat containing NGM buffer, FIG. 7b”, the “preventing animals from leaving their wells (fraction of worms escaping wells as a function of time)” value is “superior”.
